From patent US8378104B2 (OSI Pharmaceuticals, LLC, priority 2010, dated 2013) come the findings set out here.

Where a name gives a salt, the structure may show the parent alone. Read-outs that look alike come from different tables or passages of the source.

One assay concerns p-p38 in HCT-116 cells. Nature of the assay: Phospho-p38 Meso Scale ELISA assay, TNFα-stimulated HCT-116 cells. Format: cell-based. As to conditions: Homo sapiens, read-out: mean HCT-116 p-p38 ELISA IC50 (Col. C). In outline: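 Phospho-p38 measured by Meso Scale ELISA on diluted lysates, captured overnight at 4° C. Before lysis, HCT-116 cells were serum-reduced (1% FCS, 2 h), treated with compounds 4 h at 37° C and stimulated 10 min with 10 ng/mL TNFα final.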
For orientation: ELISA stands for enzyme-linked immunosorbent assay.

The test system of another assay is pJNK in HCT-116 cells. Nature of the assay: Phospho-JNK (Thr183/Tyr185) Meso Scale ELISA assay, TNFα-stimulated HCT-116 cells. The format is cell-based. Conditions: Homo sapiens, read-out: mean HCT-116 pJNK ELISA IC50 (Col. B). In a few lines:
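Meso Scale ELISA read of phospho-JNK (Thr183/Tyr185) in lysed HCT-116 cells. Cells were serum-reduced to 1% FCS for 2 hours, exposed to test drug for 4 hrs at 37° C, then given 10 ng/mL TNFα (final) for 10 minutes before lysis.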

For another assay, the target named is T1, TAK1-TAB1 fusion protein (Homo sapiens, UniProt O43318).
T1 construct: purchased Carna
T1 sequence (O43318 with tags, fused parts or gaps limits assumed): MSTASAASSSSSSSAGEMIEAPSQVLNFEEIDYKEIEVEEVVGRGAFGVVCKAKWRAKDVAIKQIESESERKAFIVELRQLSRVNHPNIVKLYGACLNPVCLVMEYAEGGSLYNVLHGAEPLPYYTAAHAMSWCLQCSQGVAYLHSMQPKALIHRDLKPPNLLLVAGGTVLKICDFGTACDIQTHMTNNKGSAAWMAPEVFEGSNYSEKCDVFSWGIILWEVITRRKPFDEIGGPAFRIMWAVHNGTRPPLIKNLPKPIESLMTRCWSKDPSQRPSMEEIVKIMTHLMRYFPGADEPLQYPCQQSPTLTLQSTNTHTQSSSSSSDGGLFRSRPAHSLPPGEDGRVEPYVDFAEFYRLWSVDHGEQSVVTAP
Nature of the assay: TAK1 biochemical assay (AlphaScreen, GST-MAP2K7 substrate). A general note: In Alpha technology, singlet oxygen from a donor bead excites a nearby acceptor bead.

The mark [1] stands for this setting: TAK1-TAB1 fusion protein, GST-MAP2K7 substrate, read-out: mean TAK1 IC50 (Col. A).

By IC50 is commonly meant the concentration at which inhibition is half-maximal. Turning to `Cc1nn(CC(C)(C)O)cc1-c1cnc(N)c2oc(-c3csc4cnccc34)cc12` [Example 289, 1-[4-(7-amino-2-thieno[2,3-c]pyridin-3-yl-furo[2,3-c]pyridin-4-yl)-3-methyl-pyrazol-1-yl]-2-methyl-propan-2-ol], the IC50 in the assay with p-p38 in HCT-116 cells lay in the range of 1000 to 10000 nM; with pJNK in HCT-116 cells, 100 to 1000 nM; on TAK1-TAB1 fusion protein (setting [1]), 1000 to 10000 nM.

Turning to `CC(=O)N1CCC(n2cc(-c3cnc(N)c4oc(-c5c[nH]c6cc(C#N)ccc56)cc34)cn2)CC1` [Example 222, 3-{4-[1-(1-acetylpiperidin-4-yl)-1H-pyrazol-4-yl]-7-aminofuro[2,3-c]pyridin-2-yl}-1H-indole-6-carbonitrile], the concentration for half-maximal inhibition (IC50) with p-p38 in HCT-116 cells, in the assay with pJNK in HCT-116 cells and at TAK1-TAB1 fusion protein (setting [1]) was 100 to 1000 nM in each case.

With `COc1cc(-c2cc3c(-c4cnn(C5CCN(C(C)=O)CC5)c4)cnc(N)c3o2)ccc1O` [Example 131, 1-(4-{4-[7-amino-2-(4-hydroxy-3-methoxyphenyl)furo[2,3-c]pyridin-4-yl]-1H-pyrazol-1-yl}piperidin-1-yl)ethanone], the figures for the 50% inhibitory concentration (IC50) with p-p38 in HCT-116 cells, in the assay on pJNK in HCT-116 cells and on TAK1-TAB1 fusion protein (setting [1]) were 1000 to 10000 nM, 100 to 1000 nM and 100 to 1000 nM, respectively.

For `Cn1cc(-c2cnc(N)c3oc(-c4c[nH]c5cnccc45)cc23)cn1` [Example 88, 4-(1-methyl-1H-pyrazol-4-yl)-2-(1H-pyrrolo[2,3-c]pyridin-3-yl)furo[2,3-c]pyridin-7-amine trifluoroacetic acid salt], the figures for the IC50 in the assay on p-p38 in HCT-116 cells, in the assay with pJNK in HCT-116 cells and at TAK1-TAB1 fusion protein (setting [1]) were 100 to 1000 nM, 100 to 1000 nM and below 100 nM, respectively.

As for `Nc1ncc(-c2cnn(C3CNC3)c2)c2cc(-c3csc4cnccc34)oc12` [Example 314, 4-(1-azetidin-3-yl-1H-pyrazol-4-yl)-2-thieno[2,3-c]pyridin-3-yl-furo[2,3-c]pyridin-7-ylamine], the concentration for half-maximal inhibition (IC50) in the assay with p-p38 in HCT-116 cells is 100 to 1000 nM; with pJNK in HCT-116 cells, 1000 to 10000 nM; at TAK1-TAB1 fusion protein (setting [1]), below 100 nM.

As to `CSc1ccccc1-c1cc2c(-c3cnn(C4CCN(C(C)=O)CC4)c3)cnc(N)c2o1` [Example 216, 1-[4-(4-{7-amino-2-[2-(methylsulfanyl)phenyl]furo[2,3-c]pyridin-4-yl}-1H-pyrazol-1-yl)piperidin-1-yl]ethanone], the 50% inhibitory concentration (IC50) in the assay on p-p38 in HCT-116 cells, in the assay with pJNK in HCT-116 cells and at TAK1-TAB1 fusion protein (setting [1]) was 100 to 1000 nM throughout.

With `CC(=O)N1CCC(n2cc(-c3cnc(N)c4oc(-c5ccccc5)cc34)cn2)CC1` [Example 149, 1-{4-[4-(7-amino-2-phenylfuro[2,3-c]pyridin-4-yl)-1H-pyrazol-1-yl]piperidin-1-yl}ethanone], the IC50 with p-p38 in HCT-116 cells lay in the range of 1000 to 10000 nM; with pJNK in HCT-116 cells, 100 to 1000 nM; on TAK1-TAB1 fusion protein (setting [1]), 1000 to 10000 nM.

For the molecule `CC(=O)N1CCC(n2cc(-c3cnc(N)c4oc(-c5cccc(CO)c5)cc34)cn2)CC1` [Example 169, 1-[4-(4-{7-amino-2-[3-(hydroxymethyl)phenyl]furo[2,3-c]pyridin-4-yl}-1H-pyrazol-1-yl)piperidin-1-yl]ethanone], the IC50 lay in the range of 1000 to 10000 nM with p-p38 in HCT-116 cells, 100 to 1000 nM in the assay with pJNK in HCT-116 cells and 100 to 1000 nM on TAK1-TAB1 fusion protein (setting [1]).

On to `CC(=O)N1CCC(n2cc(-c3cnc(N)c4oc(-c5ccc6nn(C)cc6c5)cc34)cn2)CC1` [Example 145, 1-(4-{4-[7-amino-2-(2-methyl-2H-indazol-5-yl)furo[2,3-c]pyridin-4-yl]-1H-pyrazol-1-yl}piperidin-1-yl)ethanone], for which the IC50 in the assay on p-p38 in HCT-116 cells was 1000 to 10000 nM; in the assay with pJNK in HCT-116 cells, 1000 to 10000 nM; at TAK1-TAB1 fusion protein (setting [1]), above 10000 nM.

`Nc1ncc(-c2cnn([C@H]3CC[C@H](O)CC3)c2)c2cc(-c3cccc4cnccc34)oc12` [Example 65, trans-4-{4-[7-amino-2-(isoquinolin-5-yl)furo[2,3-c]pyridin-4-yl]-1H-pyrazol-1-yl}cyclohexanol]: the IC50 was 100 to 1000 nM in the assay with p-p38 in HCT-116 cells, below 100 nM in the assay with pJNK in HCT-116 cells and 100 to 1000 nM on TAK1-TAB1 fusion protein (setting [1]).

Take `CC(=O)N1CCC(n2cc(-c3cnc(N)c4oc(-c5ccc6c(c5)CNC6=O)cc34)cn2)CC1` [Example 98, 5-{4-[1-(1-acetylpiperidin-4-yl)-1H-pyrazol-4-yl]-7-aminofuro[2,3-c]pyridin-2-yl}-2,3-dihydro-1H-isoindol-1-one]: the IC50 with p-p38 in HCT-116 cells, with pJNK in HCT-116 cells and on TAK1-TAB1 fusion protein (setting [1]) was above 10000 nM throughout.

`CC(=O)N1CCC(n2cc(-c3cnc(N)c4oc(-c5ccccc5C#N)cc34)cn2)CC1` [Example 171, 2-{4-[1-(1-acetylpiperidin-4-yl)-1H-pyrazol-4-yl]-7-aminofuro[2,3-c]pyridin-2-yl}benzonitrile]: the IC50 was in the range of 1000 to 10000 nM in the assay with p-p38 in HCT-116 cells, 1000 to 10000 nM in the assay on pJNK in HCT-116 cells and 100 to 1000 nM on TAK1-TAB1 fusion protein (setting [1]).

Regarding `Nc1ncc(-c2cnn([C@H]3CC[C@H](O)CC3)c2)c2cc(-c3cncc4cnsc34)oc12` [Example 267, trans-4-{4-[7-amino-2-([1,2]thiazolo[4,5-c]pyridin-7-yl)furo[2,3-c]pyridin-4-yl]-1H-pyrazol-1-yl}cyclohexanol Diformate Salt], the half-maximal inhibitory concentration (IC50) is 100 to 1000 nM in the assay with p-p38 in HCT-116 cells, below 100 nM in the assay on pJNK in HCT-116 cells and 100 to 1000 nM at TAK1-TAB1 fusion protein (setting [1]).

As for `Nc1ncc(-c2cnn(C3CC4(C3)OCCO4)c2)c2cc(-c3csc4cnccc34)oc12` [Example 291, 4-[1-(5,8-dioxa-spiro[3.4]oct-2-yl)-1H-pyrazol-4-yl]-2-thieno[2,3-c]pyridin-3-yl-furo[2,3-c]pyridin-7-ylamine], the values for the IC50 in the assay with p-p38 in HCT-116 cells, with pJNK in HCT-116 cells and on TAK1-TAB1 fusion protein (setting [1]) were 100 to 1000 nM, 100 to 1000 nM and below 100 nM, respectively.

`Nc1ncc(-c2cnn(C3CCOCC3)c2)c2cc(-c3cccc4cnccc34)oc12` [Example 74, 2-(isoquinolin-5-yl)-4-[1-(tetrahydro-2H-pyran-4-yl)-1H-pyrazol-4-yl]furo[2,3-c]pyridin-7-amine]: the results for the IC50 in the assay with p-p38 in HCT-116 cells, in the assay with pJNK in HCT-116 cells and at TAK1-TAB1 fusion protein (setting [1]) were 1000 to 10000 nM, 100 to 1000 nM and 100 to 1000 nM, respectively.

On to `Cc1nn(C)cc1-c1cnc(N)c2oc(-c3csc4cnccc34)cc12` [Example 293, 4-(1,3-dimethyl-1H-pyrazol-4-yl)-2-thieno[2,3-c]pyridin-3-yl-furo[2,3-c]pyridin-7-ylamine], for which the IC50 was in the range of 1000 to 10000 nM in the assay on p-p38 in HCT-116 cells, 100 to 1000 nM with pJNK in HCT-116 cells and 1000 to 10000 nM against TAK1-TAB1 fusion protein.

With `CN1CCC(n2cc(-c3cnc(N)c4oc(-c5cccc6cnccc56)cc34)cn2)CC1` [Example 77, 2-(isoquinolin-5-yl)-4-[1-(1-methylpiperidin-4-yl)-1H-pyrazol-4-yl]furo[2,3-c]pyridin-7-amine], the IC50 was 100 to 1000 nM in the assay on p-p38 in HCT-116 cells, below 100 nM with pJNK in HCT-116 cells and 100 to 1000 nM on TAK1-TAB1 fusion protein (setting [1]).

As to `CC(=O)N1CCC(n2cc(-c3cnc(N)c4oc(-c5cccc6cnccc56)cc34)cn2)CC1` [Example 81, 1-(4-{4-[7-amino-2-(isoquinolin-5-yl)furo[2,3-c]pyridin-4-yl]-1H-pyrazol-1-yl}piperidin-1-yl)ethanone], the half-maximal inhibitory concentration (IC50) in the assay on p-p38 in HCT-116 cells, with pJNK in HCT-116 cells and at TAK1-TAB1 fusion protein (setting [1]) was 100 to 1000 nM throughout.

`CC(=O)N1CCC(n2cc(-c3cnc(N)c4oc(-c5cccc(S(C)(=O)=O)c5)cc34)cn2)CC1` [Example 101, 1-[4-(4-{7-amino-2-[3-(methylsulfonyl)phenyl]furo[2,3-c]pyridin-4-yl}-1H-pyrazol-1-yl)piperidin-1-yl]ethanone]: the half-inhibitory concentration (IC50) with p-p38 in HCT-116 cells, with pJNK in HCT-116 cells and at TAK1-TAB1 fusion protein (setting [1]) was 1000 to 10000 nM each time.

On to `CC(=O)N1CCC(n2cc(-c3cnc(N)c4oc(-c5cccc6c5OC(F)(F)O6)cc34)cn2)CC1` [Example 191, 1-(4-{4-[7-amino-2-(2,2-difluoro-1,3-benzodioxol-4-yl)furo[2,3-c]pyridin-4-yl]-1H-pyrazol-1-yl}piperidin-1-yl)ethanone], for which the IC50 in the assay on p-p38 in HCT-116 cells, in the assay with pJNK in HCT-116 cells and on TAK1-TAB1 fusion protein (setting [1]) was 100 to 1000 nM each time.

For `CC(=O)N1CCC(n2cc(-c3cnc(N)c4oc(-c5cccc6[nH]ccc56)cc34)cn2)CC1` [Example 176, 1-(4-{4-[7-amino-2-(1H-indol-4-yl)furo[2,3-c]pyridin-4-yl]-1H-pyrazol-1-yl}piperidin-1-yl)ethanone], the values for the IC50 in the assay with p-p38 in HCT-116 cells, in the assay with pJNK in HCT-116 cells and on TAK1-TAB1 fusion protein (setting [1]) were 100 to 1000 nM, 100 to 1000 nM and below 100 nM, respectively.

In the case of `CC(=O)N1CCC(n2cc(-c3cnc(N)c4oc(-c5cccc6ccccc56)cc34)cn2)CC1` [Example 105, 1-(4-{4-[7-amino-2-(naphthalen-1-yl)furo[2,3-c]pyridin-4-yl]-1H-pyrazol-1-yl}piperidin-1-yl)ethanone], the IC50 lay in the range of 1000 to 10000 nM with p-p38 in HCT-116 cells, 1000 to 10000 nM in the assay with pJNK in HCT-116 cells and 100 to 1000 nM at TAK1-TAB1 fusion protein (setting [1]).

Take `COCCN1CCC(n2cc(-c3cnc(N)c4oc(-c5cccc6cnccc56)cc34)cn2)CC1` [Example 68, 2-(isoquinolin-5-yl)-4-{1-[1-(2-methoxyethyl)piperidin-4-yl]-1H-pyrazol-4-yl}furo[2,3-c]pyridin-7-amine]: the IC50 in the assay on p-p38 in HCT-116 cells, in the assay with pJNK in HCT-116 cells and on TAK1-TAB1 fusion protein (setting [1]) was 100 to 1000 nM throughout.
